Laboratory results published in PubChem BioAssay (NCI).
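Interpolation was linear, between the two tested concentrations surrounding the appropriate level; five concentrations were tested over 48 hours in 96-well plates. GI50 = concentration required for 50% inhibition of growth. At the TGI there is no net growth.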

What was measured:
Experiment in all cases: growth of human tumour cells (NCI), 48 h
EKVX NSCLC = system: EKVX NSCLC
IGROV1 ovarian = system: IGROV1 ovarian
A498 renal = system: A498 renal
MDA-MB-231 breast = system: MDA-MB-231 breast
RXF 393 renal = system: RXF 393 renal
HCT-116 colon = system: HCT-116 colon
CCRF-CEM leukemia = system: CCRF-CEM leukemia
CAKI-1 renal = system: CAKI-1 renal
SR leukemia = system: SR leukemia
HOP-92 NSCLC = system: HOP-92 NSCLC
NCI-H226 lung = system: NCI-H226 lung
UO-31 renal = system: UO-31 renal
U251 CNS = system: U251 CNS
HT29 colon = system: HT29 colon
OVCAR-5 ovarian = system: OVCAR-5 ovarian
DU-145 prostate = system: DU-145 prostate
HL-60(TB) leukemia = system: HL-60(TB) leukemia
T-47D breast = system: T-47D breast
OVCAR-4 ovarian = system: OVCAR-4 ovarian
UACC-62 melanoma = system: UACC-62 melanoma
UACC-257 melanoma = system: UACC-257 melanoma
MOLT-4 leukemia = system: MOLT-4 leukemia
HCC-2998 colon = system: HCC-2998 colon
NCI-H23 lung = system: NCI-H23 lung
NCI/ADR-RES ovarian = system: NCI/ADR-RES ovarian
MCF7 breast = system: MCF7 breast
OVCAR-3 ovarian = system: OVCAR-3 ovarian
BT-549 breast = system: BT-549 breast
RPMI-8226 leukemia = system: RPMI-8226 leukemia
OVCAR-8 ovarian = system: OVCAR-8 ovarian
SK-MEL-5 melanoma = system: SK-MEL-5 melanoma
SW-620 colon = system: SW-620 colon
HS 578T breast = system: HS 578T breast
ACHN renal = system: ACHN renal
SK-MEL-28 melanoma = system: SK-MEL-28 melanoma
NCI-H460 lung = system: NCI-H460 lung
HOP-62 NSCLC = system: HOP-62 NSCLC
SF-539 CNS = system: SF-539 CNS
M14 melanoma = system: M14 melanoma
HCT-15 colon = system: HCT-15 colon
COLO 205 colon = system: COLO 205 colon
PC-3 prostate = system: PC-3 prostate
KM12 colon = system: KM12 colon
TK-10 renal = system: TK-10 renal
A549 NSCLC = system: A549 NSCLC
SF-268 CNS = system: SF-268 CNS
LOX IMVI melanoma = system: LOX IMVI melanoma
SNB-19 CNS = system: SNB-19 CNS
NCI-H522 lung = system: NCI-H522 lung
SN12C renal = system: SN12C renal
786-0 renal = system: 786-0 renal

In the case of `COc1ccc(/C=C\c2cc(OC)c(OC)c(OC)c2)cc1NC(=O)/C=C/c1cc(OC)c(OC)c(OC)c1`, the GI50 (EKVX NSCLC) is reported as over 100 µM, the TGI (EKVX NSCLC) is reported as over 100 µM and the GI50 (IGROV1 ovarian) is reported as 9.47 µM. The TGI (IGROV1 ovarian) was over 100 µM, the GI50 (A498 renal) was 0.949 µM and the TGI (A498 renal) was over 100 µM. For the same molecule, the GI50 (MDA-MB-231 breast) was 7.81 µM, the TGI (MDA-MB-231 breast) was over 100 µM and the GI50 (RXF 393 renal) was 2.66 µM. The TGI (RXF 393 renal) was 8.96 µM, the GI50 (HCT-116 colon) was 3.83 µM and the TGI (HCT-116 colon) was over 100 µM. The GI50 (CCRF-CEM leukemia) was 4.16 µM, the TGI (CCRF-CEM leukemia) was over 100 µM and the GI50 (CAKI-1 renal) was 2.94 µM. The TGI (CAKI-1 renal) was over 100 µM, the GI50 (SR leukemia) was 0.854 µM and the TGI (SR leukemia) was over 100 µM. It also gave a GI50 (HOP-92 NSCLC) of 3.6 µM, a TGI (HOP-92 NSCLC) of over 100 µM and a GI50 (NCI-H226 lung) of 4.15 µM. For the same molecule, the TGI (NCI-H226 lung) was over 100 µM, the GI50 (UO-31 renal) was 2.64 µM and the TGI (UO-31 renal) was over 100 µM. It also gave a GI50 (U251 CNS) of 3.82 µM, a TGI (U251 CNS) of over 100 µM and a GI50 (HT29 colon) of 3.55 µM. It also gave a TGI (HT29 colon) of over 100 µM, a GI50 (OVCAR-5 ovarian) of 5.74 µM and a TGI (OVCAR-5 ovarian) of over 100 µM. It also gave a GI50 (DU-145 prostate) of 5.01 µM, a TGI (DU-145 prostate) of over 100 µM and a GI50 (HL-60(TB) leukemia) of 1.95 µM. It also gave a TGI (HL-60(TB) leukemia) of 8.03 µM, a GI50 (T-47D breast) of 5.01 µM and a TGI (T-47D breast) of over 100 µM. It also gave a GI50 (OVCAR-4 ovarian) of 6.77 µM, a TGI (OVCAR-4 ovarian) of over 100 µM and a GI50 (UACC-62 melanoma) of 2.8 µM. The TGI (UACC-62 melanoma) was over 100 µM, the GI50 (UACC-257 melanoma) was 30.8 µM and the TGI (UACC-257 melanoma) was over 100 µM. For the same molecule, the GI50 (MOLT-4 leukemia) was 8.52 µM, the TGI (MOLT-4 leukemia) was over 100 µM and the GI50 (HCC-2998 colon) was 3.73 µM. The TGI (HCC-2998 colon) was over 100 µM, the GI50 (NCI-H23 lung) was 6.96 µM and the TGI (NCI-H23 lung) was over 100 µM. For the same molecule, the GI50 (NCI/ADR-RES ovarian) was 2.1 µM, the TGI (NCI/ADR-RES ovarian) was over 100 µM and the GI50 (MCF7 breast) was 2.92 µM. The TGI (MCF7 breast) was over 100 µM, the GI50 (OVCAR-3 ovarian) was 5.62 µM and the TGI (OVCAR-3 ovarian) was over 100 µM. For the same molecule, the GI50 (BT-549 breast) was 7.96 µM, the TGI (BT-549 breast) was 77.4 µM and the GI50 (RPMI-8226 leukemia) was 2.9 µM. The TGI (RPMI-8226 leukemia) was over 100 µM, the GI50 (OVCAR-8 ovarian) was 5.14 µM and the TGI (OVCAR-8 ovarian) was over 100 µM. It also gave a GI50 (SK-MEL-5 melanoma) of 2.21 µM, a TGI (SK-MEL-5 melanoma) of 6.73 µM and a GI50 (SW-620 colon) of 5.2 µM. For the same molecule, the TGI (SW-620 colon) was over 100 µM, the GI50 (HS 578T breast) was 5.94 µM and the TGI (HS 578T breast) was over 100 µM. The GI50 (ACHN renal) was 6.76 µM, the TGI (ACHN renal) was over 100 µM and the GI50 (SK-MEL-28 melanoma) was 3.42 µM. The TGI (SK-MEL-28 melanoma) was over 100 µM, the GI50 (NCI-H460 lung) was 3.61 µM and the TGI (NCI-H460 lung) was over 100 µM. It also gave a GI50 (HOP-62 NSCLC) of 4.62 µM, a TGI (HOP-62 NSCLC) of over 100 µM and a GI50 (SF-539 CNS) of 3.95 µM. It also gave a TGI (SF-539 CNS) of over 100 µM, a GI50 (M14 melanoma) of 3.15 µM and a TGI (M14 melanoma) of over 100 µM. It also gave a GI50 (HCT-15 colon) of 5.14 µM, a TGI (HCT-15 colon) of over 100 µM and a GI50 (COLO 205 colon) of 4.41 µM. For the same molecule, the TGI (COLO 205 colon) was 18.5 µM, the GI50 (PC-3 prostate) was 3.09 µM and the TGI (PC-3 prostate) was over 100 µM. For the same molecule, the GI50 (KM12 colon) was 4.67 µM, the TGI (KM12 colon) was over 100 µM and the GI50 (TK-10 renal) was over 100 µM. For the same molecule, the TGI (TK-10 renal) was over 100 µM, the GI50 (A549 NSCLC) was 3.82 µM and the TGI (A549 NSCLC) was over 100 µM. It also gave a GI50 (SF-268 CNS) of over 100 µM, a TGI (SF-268 CNS) of over 100 µM and a GI50 (LOX IMVI melanoma) of 4.9 µM. The TGI (LOX IMVI melanoma) was over 100 µM, the GI50 (SNB-19 CNS) was 5.64 µM and the TGI (SNB-19 CNS) was over 100 µM. The GI50 (NCI-H522 lung) was 2.51 µM, the TGI (NCI-H522 lung) was over 100 µM and the GI50 (SN12C renal) was 4.56 µM. It also gave a TGI (SN12C renal) of over 100 µM, a GI50 (786-0 renal) of 5.43 µM and a TGI (786-0 renal) of over 100 µM.
